What was measured:
[1] = system: CXCL10 (IP10); test: ELISA of CXCL10 (IP10) protein in monkey serum and plasma; assay type: in vivo, cynomolgus monkey (Macaca fascicularis); details: monkey #A60055
Excerpt: FIG. 6. ELISA confirmation of CXCL10 (IP10) protein level in monkey serum samples.
These peripheral biomarkers might allow safe use of cox-2 inhibitory compounds in clinics and selection of cox-2 inhibitory follow-up compounds without cardiovascular toxicity.

[2] = system: INFγ inducible proteins in serum and plasma; test: Rules-Based Medicine (RBM) human MAP multiplex protein profiling in serum and plasma; assay type: in vivo, cynomolgus monkey (Macaca fascicularis); details: monkey #A60055
Excerpt: To obtain biomarkers predicting cardiovascular adverse effect of tested compounds/drugs, expression levels of proteins have been analysed in cynomolgus monkey serum and plasma from the present analysis using human Multi-Analyte Profile (MAP) Technology. Human MAP could be used to measure protein levels of more than 80 antigens in monkey serum and plasma (Rules-Based Medicine Inc (RBM®), Austin, Tex. USA).
Soluble proteins present in serum and plasma of the same monkeys have been measured using a multiplex assay produced by Rules-Based Medicine (RBM®) of Texas.

SMILES: CS(=O)(=O)c1ccc(C2=C(c3ccccc3)C(=O)OC2)cc1 [Vioxx®, rofecoxib]
- CXCL10 chemokine protein expression by ELISA [1]: Increased expression
- level of INFγ inducible proteins in serum and plasma (multiplex assay) [2]: increased level

Source: patent US9738932B2, “Biomarkers for cardiovascular side-effects induced by cox-2 inhibitory compounds” (FIRALIS SAS, priority 2005, dated 2017)
